Counter-ions that a name gives are not always drawn. Like-named read-outs stand apart in the source and are kept apart here.
Key:
[1] = target: T1, isolated fibrinogen receptor (glycoprotein IIb/IIIa) (Homo sapiens, UniProt P05106+P08514); assay: Inhibition of 125I-fibrinogen binding to the isolated, immobilized receptor (glycoprotein IIb/IIIa) (Test method 3); settings: isolated receptor immobilized in microtitre plates
T1 construct: isolated from human thrombocytes and immobilized in microtitre plates; from tissue; host or cells: human thrombocytes (platelets), receptor isolated
T1 sequence (P08514 32-887 limits assumed): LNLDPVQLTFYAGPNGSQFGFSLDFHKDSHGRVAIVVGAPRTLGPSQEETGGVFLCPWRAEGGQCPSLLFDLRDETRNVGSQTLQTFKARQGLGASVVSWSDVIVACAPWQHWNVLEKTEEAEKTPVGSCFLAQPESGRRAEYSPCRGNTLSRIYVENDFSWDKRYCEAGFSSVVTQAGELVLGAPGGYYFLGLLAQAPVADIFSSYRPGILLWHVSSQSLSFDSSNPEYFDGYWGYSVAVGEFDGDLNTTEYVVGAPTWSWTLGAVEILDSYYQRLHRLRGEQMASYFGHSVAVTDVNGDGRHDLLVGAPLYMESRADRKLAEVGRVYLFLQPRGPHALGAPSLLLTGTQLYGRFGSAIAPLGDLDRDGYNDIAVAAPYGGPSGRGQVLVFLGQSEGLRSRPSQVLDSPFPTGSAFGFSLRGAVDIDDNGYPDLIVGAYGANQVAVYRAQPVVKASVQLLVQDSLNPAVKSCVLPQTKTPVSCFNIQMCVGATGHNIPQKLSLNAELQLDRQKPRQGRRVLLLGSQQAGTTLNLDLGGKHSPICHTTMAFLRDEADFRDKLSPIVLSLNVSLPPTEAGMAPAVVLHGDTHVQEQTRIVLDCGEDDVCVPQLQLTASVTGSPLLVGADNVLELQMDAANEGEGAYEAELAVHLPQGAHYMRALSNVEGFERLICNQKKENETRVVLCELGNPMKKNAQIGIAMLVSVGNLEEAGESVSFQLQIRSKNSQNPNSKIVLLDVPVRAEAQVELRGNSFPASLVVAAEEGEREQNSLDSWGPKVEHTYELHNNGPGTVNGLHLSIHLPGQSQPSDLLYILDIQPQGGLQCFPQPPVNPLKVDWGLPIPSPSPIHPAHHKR
T1 sequence (P08514 891-1039 partner limits assumed): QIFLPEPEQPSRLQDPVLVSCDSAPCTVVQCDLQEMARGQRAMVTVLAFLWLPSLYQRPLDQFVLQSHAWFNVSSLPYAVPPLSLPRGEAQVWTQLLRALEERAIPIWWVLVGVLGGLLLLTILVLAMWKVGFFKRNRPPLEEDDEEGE
T1 sequence (P05106 27-788): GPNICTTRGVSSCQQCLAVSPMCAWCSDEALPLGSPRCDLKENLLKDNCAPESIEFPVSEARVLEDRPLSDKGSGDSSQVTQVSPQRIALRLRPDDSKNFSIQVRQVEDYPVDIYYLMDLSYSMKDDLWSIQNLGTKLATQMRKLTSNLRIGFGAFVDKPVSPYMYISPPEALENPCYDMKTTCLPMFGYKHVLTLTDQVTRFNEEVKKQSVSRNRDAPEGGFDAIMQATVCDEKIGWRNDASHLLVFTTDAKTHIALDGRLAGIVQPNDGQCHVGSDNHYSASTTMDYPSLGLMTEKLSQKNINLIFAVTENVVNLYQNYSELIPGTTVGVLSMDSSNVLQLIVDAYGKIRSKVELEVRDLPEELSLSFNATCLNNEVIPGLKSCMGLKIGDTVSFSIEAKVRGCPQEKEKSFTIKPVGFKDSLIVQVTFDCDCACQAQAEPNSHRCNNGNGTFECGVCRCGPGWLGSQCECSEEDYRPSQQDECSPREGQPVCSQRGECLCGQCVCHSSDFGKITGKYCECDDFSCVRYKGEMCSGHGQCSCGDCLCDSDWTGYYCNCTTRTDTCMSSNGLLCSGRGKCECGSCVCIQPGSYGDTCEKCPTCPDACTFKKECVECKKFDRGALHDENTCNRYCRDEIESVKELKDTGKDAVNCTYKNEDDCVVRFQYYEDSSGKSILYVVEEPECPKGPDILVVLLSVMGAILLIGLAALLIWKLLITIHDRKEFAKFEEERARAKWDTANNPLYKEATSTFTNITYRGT
Protocol: The inhibition of the binding of fibrinogen to its receptor (glycoprotein IIb/IIIa) which is brought about by the compounds according to the invention is tested on the isolated receptor, which was isolated from human thrombocytes and immobilized in microtitre plates.

[2] = test system: gel-filtered human thrombocytes; assay: Inhibition of the aggregation of gel-filtered human thrombocytes following stimulation with ADP or thrombin (Test method 1); assay type: cell-based; settings: 1 mg/ml fibrinogen, 37° C., GFP from 2-4 donors
Protocol: As a functional test, measurement is made of the inhibition of the aggregation of gel-filtered human thrombocytes, following stimulation with ADP or thrombin, by the compounds according to the invention.
For this purpose, human thrombocytes were isolated from platelet-rich plasma (PRP) by gel filtration on Sepharose 2 B. The resulting suspension of gel-filtered platelets (GFP), which contained 3×10^8 platelets/ml, was activated in the presence of 1 mg/ml of fibrinogen either with 10 μM ADP or with 0.1 U/ml thrombin, and stirred in an aggregometer (PAP 4, Biodata, Hatboro, Penna., USA) at 37° C. and at 1000 revolutions per minute. The maximum increase in the translucency is taken as a measure of the aggregation. The test substances were added to the GFP at 37° C. and 2 min before activating with ADP or thrombin.

[3] = target: T2, fibrinogen receptor (glycoprotein IIb/IIIa) on intact, gel-filtered human thrombocytes (Homo sapiens, UniProt P05106+P08514); assay: Inhibition of 125I-fibrinogen binding to its receptor (glycoprotein IIb/IIIa) on intact, gel-filtered human thrombocytes (Test method 2); settings: intact GFP, 10 μM ADP, 40 nmol/l 125I-fibrinogen, room temperature, 30 min; read-out: Ki, inhibition of the binding of 125I-fibrinogen, ADP-stimulated
T2 construct: endogenous in cells; host or cells: human thrombocytes isolated from platelet-rich plasma by gel filtration on Sepharose 2 B
T2 sequence (P08514 32-887 limits assumed): as the sequence (P08514 32-887 limits assumed) above
T2 sequence (P08514 891-1039 partner limits assumed): as the sequence (P08514 891-1039 partner limits assumed) above
T2 sequence (P05106 27-788): as the sequence (P05106 27-788) above
Protocol: The inhibition of the binding of fibrinogen to its receptor (glycoprotein IIb/IIIa) by the compounds according to the invention is tested on intact, gel-filtered human thrombocytes.
For this purpose, human thrombocytes were isolated from platelet-rich plasma (PRP) by gel filtration on Sepharose 2 B. A suspension of gel-filtered platelets (GFP) was obtained which contained 4×10^8platelets/ml. […] Aliquots of 100 μl were then added onto 20% sucrose, and the platelets were sedimented by being centrifuged for 2 minutes at 12,000 revolutions per minute. The supernatant was decanted carefully and completely and the remaining sediment was measured in a gamma counter. The specific binding was ascertained by subtracting the binding in the presence of an excess (10 μM) of unlabelled fibrinogen from the total bound radioactivity.

[4] = read-out: Ki, inhibition of the binding of 125I-fibrinogen, ADP-stimulated
[5] = Homo sapiens, ADP-stimulated (10 μM ADP), read-out: IC50, inhibition of thrombocyte aggregation, ADP-stimulated
[6] = Homo sapiens, Thrombin-stimulated (0.1 U/ml thrombin), read-out: IC50, inhibition of thrombocyte aggregation, Thrombin-stimulated
[7] = Ki, inhibition of the binding of 125I-fibrinogen, ADP-stimulated
[8] = ADP-stimulated (10 μM ADP), read-out: IC50, inhibition of thrombocyte aggregation, ADP-stimulated
[9] = Thrombin-stimulated (0.1 U/ml thrombin), read-out: IC50, inhibition of thrombocyte aggregation, Thrombin-stimulated

Row | Compound | Ki [1, 4] | IC50 [2, 5] | IC50 [2, 6] | Ki [1, 7] | IC50 [2, 8] | IC50 [2, 9] | Ki [3]
1 | CC1(c2ccc(C(=N)N)cc2)NC(=O)N(CC(=O)NC(CC(=O)O)c2cccc([N+](=O)[O-])c2)C1=O (racemic) [Example 39, (R,S)-3-(((R,S)-4-(4-(Aminoiminomethyl)phenyl)-4-methyl-2,5-dioxoimidazolidin-1-yl)acetylamino)-3-(3-nitrophenyl)propionic acid] | 0.948 nM | 80 nM | 150 nM | – | – | – | –
2 | CC1(c2ccc(C(=N)N)cc2)NC(=O)N(CC(=O)NC(CC(=O)O)c2ccc(C(=O)O)cc2)C1=O (racemic) [Example 40, (R,S)-3-(((R,S)-4-(4-(Aminoiminomethyl)phenyl)-4-methyl-2,5-dioxoimidazolidin-1-yl)acetylamino)-3-(4-hydroxycarbonylphenyl)propionic acid] | 1.99 nM | 400 nM | 250 nM | – | – | – | –
3 | CC1(c2ccc(C(=N)N)cc2)NC(=O)N(CC(=O)NC(CC(=O)O)c2ccc(-c3ccccc3)cc2)C1=O (racemic) [Example 46, (R,S)-3-(((R,S)-4-(4-Aminoiminomethyl)phenyl)-4-methyl-2,5-dioxoimidazolidin-1-yl)acetylamino)-3-(4-phenylphenyl)propionic acid] | 1.23 nM | 100 nM | 100 nM | – | – | – | –
4 | CC1(c2ccc(C(=N)N)cc2)NC(=O)N(CC(=O)N[C@@H](CC(=O)O)C(=O)N[C@H](C(=O)O)c2ccccc2)C1=O (single isomer, unassigned) [Example 21, ((S or R)-4-(4-(Aminoiminomethyl)phenyl)-4-methyl-2,5-dioxoimidazolidin-1-yl)acetyl-L-aspartyl-L-phenylglycine] | – | – | – | 1.9 nM | 800 nM | 500 nM | –
5 | CC1(c2ccc(C(=N)N)cc2)NC(=O)N(CC(=O)N[C@@H](CC(=O)O)C(=O)N[C@H](C(=O)O)c2ccccc2)C1=O (single isomer, unassigned) [Example 22, ((R or S)-4-(4-(Aminoiminomethyl)phenyl)-4-methyl-2,5-dioxoimidazolidin-1-yl)acetyl-L-aspartyl-L-phenylglycine] | – | – | – | 0.15 nM | 25 nM | 50 nM | –
6 | CC1(c2ccc(C(=N)N)cc2)NC(=O)N(CC(=O)N[C@@H](CC(=O)O)c2ccccc2)C1=O (single isomer, unassigned) [Example 57, (S)-3-(((S or R)-4-(4-Aminoiminomethyl)phenyl)-4-methyl-2,5-dioxoimidazolidin-1-yl)acetylamino)-3-phenylpropionic acid] | 37.3 nM | – | – | – | 6000 nM | 5000 nM | 1970 nM
7 | CC1(c2ccc(C(=N)N)cc2)NC(=O)N(CC(=O)N[C@@H](CC(=O)O)c2ccccc2)C1=O (single isomer, unassigned) [Example 58, (S)-3-(((R or S)-4-(4-Aminoiminomethyl)phenyl)-4-methyl-2,5-dioxoimidazolidin-1-yl)acetylamino)-3-phenylpropionic acid] | 0.172 nM | – | – | – | 20 nM | 25 nM | 9.2 nM
8 | CC1(c2ccc(C(=N)N)cc2)NC(=O)N(CC(=O)N[C@@H](CC(=O)O)C(=O)N[C@H](C(=O)O)c2ccccc2)C1=O (stereo partly drawn) [Example 1, ((R,S)-4-(4-(Aminoiminomethyl)phenyl)-4-methyl-2,5-dioxoimidazolidin-1-yl)-acetyl-L-aspartyl-L-phenylglycine] | 0.172 nM | 40 nM | 50 nM | – | – | – | 13.2 nM
9 | CC1(c2ccc(C(=N)N)cc2)C(=O)N(CC(=O)N[C@@H](CC(=O)O)C(=O)N[C@H](C(=O)O)c2ccccc2)C(=O)N1Cc1ccccc1 (stereo partly shown) [Example 25] | 0.175 nM | 30 nM | 50 nM | – | – | – | –
10 | N=C(N)c1ccc(C2(C3CC3)NC(=O)N(CC(=O)N[C@@H](CC(=O)O)C(=O)N[C@H](C(=O)O)c3ccccc3)C2=O)cc1 (stereo partly drawn) [Example 26, ((R,S)-4-(4-(Aminoiminomethyl)phenyl)-4-cyclopropyl-2,5-dioxoimidazolidin-1-yl)acetyl-L-aspartyl-L-phenylglycine] | 0.117 nM | 20 nM | 40 nM | – | – | – | –
11 | CCC1(c2ccc(C(=N)N)cc2)NC(=O)N(CC(=O)N[C@@H](CC(=O)O)C(=O)N[C@H](C(=O)O)c2ccccc2)C1=O (stereo partly drawn) [Example 27, ((R,S)-4-(4-(Aminoiminomethyl)phenyl)-4-ethyl-2,5-dioxoimidazolidin-1-yl)acetyl-L-aspartyl-L-phenylglycine] | 0.107 nM | 25 nM | 40 nM | – | – | – | –
12 | N=C(N)c1ccc(C2(Cc3ccccc3)NC(=O)N(CC(=O)N[C@@H](CC(=O)O)C(=O)N[C@H](C(=O)O)c3ccccc3)C2=O)cc1 (stereo partly drawn) [Example 28, ((R,S)-4-(4-(Aminoiminomethyl)phenyl)-4-benyl-2,5-dioxoimidazolidin-1-yl)acetyl-L-aspartyl-L-phenylglycine] | 0.078 nM | 25 nM | 40 nM | – | – | – | –
13 | CC1(c2ccc(C(=N)N)cc2)NC(=O)N(CC(=O)N[C@@H](CC(=O)O)c2ccccc2)C1=O (stereo partly drawn) [Example 56, (S)-3-(((R,S)-4-(4-(aminoiminomethyl)phenyl)-4-methyl-2,5-dioxoimidazolidin-1-yl)acetylamino)-3-phenylpropionic acid hydrochloride] | 0.486 nM | 100 nM | 60 nM | – | – | – | 21.8 nM

From patent US6191282A, “Substituted 5-membered ring heterocycles comprising a bicyclic or tricyclic group their preparation and their use” (Hoechst Marion Roussel, priority 1993, dated 2001)
